Activity calls are given as the source filed them. The rule behind the calls is not given here.
Key:
Mus musculus [1] = assay: Antifertility effect in CD1 mouse assessed as number of pregnant animals at 50 mg/kg, po administered postcoitally for 6 days; format: functional, organism-based; design: dose 50 mg/kg
Rattus norvegicus [2] = assay: Antifertility effect in Sprague-Dawley rat assessed as number of pregnant animals at 40 mg/kg, po administered postcoitally for 1 to 10 days; format: functional, organism-based; design: dose 40 mg/kg
Rattus norvegicus [3] = assay: Toxicity in Sprague-Dawley rat at 40 mg/kg; format: organism-based; design: dose 40 mg/kg; details: in vivo
Rattus norvegicus [4] = assay: Antifertility effect in Sprague-Dawley rat assessed as number of pregnant animals at 10 mg/kg administered postcoitally for 1 to 10 days; format: functional, organism-based; design: dose 10 mg/kg
Syrian golden hamster = assay: Toxicity in golden syrian hamster at 25 mg/kg; format: organism-based, Mesocricetus auratus; design: dose 25 mg/kg; details: in vivo
Rattus norvegicus [5] = assay: Antifertility effect in Sprague-Dawley rat assessed as number of pregnant animals at 40 mg/kg, po administered postcoitally for 1 to 6 days; format: functional, organism-based; design: dose 40 mg/kg
Rattus norvegicus [6] = assay: Antifertility effect in Sprague-Dawley rat assessed as number of pregnant animals at 2 mg/kg administered postcoitally for 1 to 10 days; format: functional, organism-based; design: dose 2 mg/kg
Rattus norvegicus [7] = assay: Antifertility effect in Sprague-Dawley rat assessed as number of pregnant animals at 58 mg/kg, po administered postcoitally for 1 to 6 days; format: functional, organism-based; design: dose 58 mg/kg
Mus musculus [8] = assay: Antifertility effect in CD1 mouse assessed as number of pregnant animals at 100 mg/kg, po administered postcoitally for 6 days; format: functional, organism-based; design: dose 100 mg/kg

COC(=O)c1cc2c(c3c1ccc1c(OC)cccc13)OCO2
Activity (Mus musculus [1]): inactive

COc1cccc2c1cc([N+](=O)[O-])c1c(C(=O)O)cc3c(c12)OCO3 [ARISTOLOCHIC ACID]
Activity (Rattus norvegicus [2]): Active
Activity (Rattus norvegicus [3]): Active
Activity (Rattus norvegicus [4]): inactive
Activity (Syrian golden hamster): Active

COc1cccc2c1ccc1c(C(=O)O)cc3c(c12)OCO3
Activity (Rattus norvegicus [5]): inactive
Activity (Rattus norvegicus [6]): inactive

O=C1OC[C@H](Cc2ccc3c(c2)OCO3)/C1=C\c1ccc2c(c1)OCO2
Activity (Rattus norvegicus [7]): inactive

C[C@@H]1CCC[C@]23C[C@@H](CC[C@@]12C)[C@@](C)(O)C3
Activity (Mus musculus [8]): inactive
